Here are results for three molecules from patent publication US10167315B2, “Peptoids and methods for treating Alzheimer's disease” (THE BOARD OF TRUSTEES OF THE UNIVERSITY OF ARKANSAS, priority 2015, dated 2019).

For experiment [1], the target named is T1, Aβ40 (Homo sapiens, UniProt P05067).
T1 construct: purchased Anaspec, Inc
Description: Aβ40 aggregation assay monitored via ThT fluorescence. Type of experiment: biochemical. Conditions: 100 μM peptoid, 20 μM Aβ40 monomer; mean±SEM, n=7. The method, then:
(§1) Aβ40 was dissolved in cold 1,1,1,3,3-hexafluoro-2-propanol (HFIP) to create a 1 mM solution and was incubated on ice for 60 min. After incubation, the solution was aliquoted into individual silicon-coated vials, and HFIP was allowed to evaporate overnight at room temperature, resulting in a thin protein film that was stored with desiccant at −80° C. until use. Prior to experimentation, protein films were rehydrated with 5 mM NaOH on ice for 5 min, and then 40 mM Tris-HCl (pH 8.0) was added for 10 min on ice for a final concentration of 250 μM NaOH.
(§2) Aggregation assays were performed with 20 μM rehydrated Aβ40 in 40 mM Tris-HCl (pH 8.0) and 150 mM NaCl. Peptoids were dissolved in DMSO and added at 100 μM such that the final DMSO concentration was 5% (v/v). Assays were performed at 25° C. with agitation on an orbital shaker at 800 rpm.
To monitor aggregation using ThT, an aliquot of the aggregation reaction was taken at varying time points and combined with 12.5 μM ThT at a 5:1 molar ratio (ThT:Aβ). Samples were mixed for 8 s and then scanned with a Shimazdu RF-150 mini fluorometer (excitation at 440±10 nm and emission at 490±10 nm) using an average scan time of 4 s. ThT fluorescence with background (ThT alone) subtraction was normalized to the fluorescence detected at equilibrium within the control reaction, and results were plotted against time. […] The fold-change in the lag time was calculated as the ratio of the lag time observed in the presence of peptoid to that of the control. The equilibrium plateau was determined for both the control and peptoid reactions, and percent inhibition was calculated as the percentage decrease of the equilibrium plateau observed in the presence of peptoid relative to the control.

Experiment [2] has as its target T1, Aβ40. Description: Aβ40 aggregation assay assessed by dot blot analysis with fibril specific OC antibody. Type of experiment: biochemical. The following applies: 100 μM peptoid, 20 μM Aβ40 monomer; for lag time extension (dot blot, OC antibody), FIG. 3 legend: mean±SEM, n=3. The method, then: as §1, §2
In parallel with ThT fluorescence, aggregation assays were also assessed by dot blot analysis. […] Membranes were washed three times with TBS-T and incubated with Aβ fibril specific OC antibody (1:5000 dilution) for 1 h at room temperature with gentle agitation. Membranes were again washed three times with TBS-T. Protein detection for bound OC antibody was performed by binding alkaline phosphatase-conjugated anti-rabbit IgG (1:3000 dilution) for 1 h at room temperature with gentle agitation. Dot blots were developed using nitro blue tetrazolium and 5-bromo-4-chloro-3-indolyl phosphate in TBS-T/MgCl2 until […]. The developing reaction was halted using a 10% acetic acid solution. Dot blots were immediately imaged using a Canon CanoScan 9000F (Tokyo, Japan). Images were analyzed with ImageJ software using the gel lane analysis tool. Dot density was normalized to the density detected at equilibrium for the control and plotted against time. The fold-change in lag time and percent inhibition were assessed as described for ThT fluorescence.

The target of experiment [3] is T1, Aβ40. Description: Transmission electron microscopy of Aβ40 aggregates. The following applies: 100 μM peptoid, 20 μM Aβ40, 255 min; for overall number of Aβ40 aggregates (TEM): versus control. The method, then:
Aggregation assays were performed with 20 μM rehydrated Aβ40 in 40 mM Tris-HCl (pH 8.0) and 150 mM NaCl. Peptoids were dissolved in DMSO and added at 100 μM such that the final DMSO concentration was 5% (v/v). Assays were performed at 25° C. with agitation on an orbital shaker at 800 rpm. Monomer aggregation reactions were gridded for transmission electron microscopy (TEM) at 255 min, a time by which the control reaction had reached plateau as observed by ThT fluorescence. A 3 μL sample was placed onto a wax substrate, and a 300 square mesh formvar-carbon supported nickel grid (Electron Microscopy Sciences, Hatfield, Pa.) was inverted onto the sample. After 1 min, the sample was wicked away from the bottom side of the grid using a piece of filter paper. A 3 μL sample of 2% uranyl acetate was then placed onto the wax substrate, and the grid was inverted onto the solution for a period of 45 s. Excess stain was wicked away with a piece of filter paper, and the grids were allowed to dry for a period of 24 h. Imaging was performed using a JEOL-1011 transmission electron microscope (JEOL Ltd., Tokyo, Japan) with an accelerating voltage of 110 kV. Blinded observation of samples with random selection of grid areas was implemented to reduce bias during imaging. Images are the representative of 3 repeated experiments and 3 random sections of the grids.

In experiment [4] the target is T1, Aβ40. Description: Nile Red spectroscopy, surface hydrophobicity of Aβ40 aggregates. Conditions: 100 μM peptoid, 20 μM Aβ40, equilibrium plateau; n=3-4. The method, then: as §2
To monitor peptoid-induced changes in aggregate surface hydrophobicity, which are indicative of changes in aggregate conformation, an aliquot of the aggregation reaction was taken from the equilibrium plateau and combined with 200 μM Nile Red (Life Technologies, Carlsbad, Calif.) at a 10:1 molar ratio (Nile Red:Aβ). Samples were scanned using a PerkinElmer LS 45 Luminescence Spectrometer (excitation at 550 nm and emission from 580-700 nm), and the integrated area under the curve (IAUC) was calculated from 580-700 nm. The IAUC was blank (Nile Red, peptoid) subtracted and normalized to Nile Red measurements performed for the control reaction.

The target in experiment [5] is T1, Aβ40. Conditions: cited from earlier work.
In experiment [6] the target is T1, Aβ40. Conditions: different Aβ lot; cited from earlier work.

Where a SMILES comes first, the peptide text is derived from it. [ ]: non-standard residue; d: D form. N(1S-Me-propyl)Gly = CC[C@H](C)NCC(=O)O; Nspe = C[C@H](NCC(=O)O)c1ccccc1; Nphe = O=C(O)CNCc1ccccc1; NPrGly = CCCNCC(=O)O; Nlys = NCCCCNCC(=O)O Where only a bound is given, the exact number is not on record here.

T1 sequence (P05067 672-711 limits assumed): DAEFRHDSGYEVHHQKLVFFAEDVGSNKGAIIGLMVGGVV

Take `CC[C@H](C)NCC(=O)N(CC(=O)N(CC(=O)N(CC(=O)N(CC(=O)N(CCCCN)CC(=O)N(CC(=O)N(CC(N)=O)[C@@H](C)c1ccccc1)[C@@H](C)CC)[C@@H](C)CC)[C@@H](C)c1ccccc1)[C@@H](C)c1ccccc1)[C@@H](C)c1ccccc1` [JPT1s] (H-[N(1S-Me-propyl)Gly][Nspe][Nspe][Nspe][N(1S-Me-propyl)Gly][Nlys][N(1S-Me-propyl)Gly][Nspe]-NH2): in experiment [1], the “Inhibition of Aβ40 aggregation (reduction in the ThT fluorescence plateau at equilibrium)” value is given as 76.9±4.8%. In experiment [2], the “decrease in fibrillar aggregates at equilibrium (dot blot, OC antibody)” value (“decrease … (dot blot, OC antibody)” for short) is listed as 50.5±9.0%; the “fold change in lag time versus the control (dot blot, OC antibody)” value (“fold change … (dot blot, OC antibody)” for short) was determined as 2.2±0.4 fold; the “lag time extension (dot blot, OC antibody), FIG. 3 legend” value (“lag time extension” below) is listed as 2.22±0.28 times that of the control. Also, in experiment [3], the “overall number of Aβ40 aggregates (TEM)” value is given as “reduction in the overall number of aggregates”. Further, the “surface hydrophobicity of Aβ40 aggregates (Nile Red fluorescence IAUC 580-700 nm normalized to control)” value in experiment [4] is listed as “no significant change in Nile Red fluorescence”.

For the molecule `CCCN(CC(=O)N(CCC)CC(=O)N(CC(=O)N(CC(=O)N(CCC)CC(=O)N(CC(=O)N(CC(N)=O)Cc1ccccc1)Cc1ccccc1)Cc1ccccc1)Cc1ccccc1)C(=O)CNCCCCN` [JPT1a] (H-[Nlys][NPrGly][NPrGly][Nphe][Nphe][NPrGly][Nphe][Nphe]-NH2), in experiment [1], the “Inhibition of Aβ40 aggregation (reduction in the ThT fluorescence plateau at equilibrium)” value is 85.6±4.8%. Besides, in experiment [2], the “decrease … (dot blot, OC antibody)” value came to 72.6±4.5%; the “fold change … (dot blot, OC antibody)” value was below 0.50 fold; the “lag time extension” value is < 0.42 times that of the control. Further, in experiment [3], the “morphology of Aβ40 aggregates formed in the presence of peptoid (TEM)” value is “circular, bird nest-like morphology” and the “overall number of Aβ40 aggregates (TEM)” value is given as “reduction in the overall number of aggregates”. In experiment [4], the “surface hydrophobicity of Aβ40 aggregates (Nile Red fluorescence IAUC 580-700 nm normalized to control)” value is listed as “significantly increased surface hydrophobicity”.

Take `CC[C@H](C)N(CC(=O)N(CC(=O)N(CC(=O)N(CC(=O)N(CC(=O)N(CC(=O)N(CC(N)=O)[C@@H](C)c1ccccc1)[C@@H](C)c1ccccc1)[C@@H](C)CC)[C@@H](C)c1ccccc1)[C@@H](C)c1ccccc1)[C@@H](C)CC)C(=O)CNCCCCN` [JPT1] (H-[Nlys][N(1S-Me-propyl)Gly][N(1S-Me-propyl)Gly][Nspe][Nspe][N(1S-Me-propyl)Gly][Nspe][Nspe]-NH2): in experiment [1], the “Inhibition of Aβ40 aggregation (reduction in the ThT fluorescence plateau at equilibrium)” value is given as 83.1±4.8%. In experiment [2], the “decrease … (dot blot, OC antibody)” value was determined as 46.0±11.4%; the “fold change … (dot blot, OC antibody)” value is listed as 2.7±0.8 fold; the “lag time extension” value is reported as 2.67±0.83 times that of the control. Moreover, in experiment [3], the “morphology of Aβ40 aggregates formed in the presence of peptoid (TEM)” value is reported as “small aggregates with no extensive branching” and the “overall number of Aβ40 aggregates (TEM)” value is listed as “reduction in the overall number of aggregates”. In addition, the “surface hydrophobicity of Aβ40 aggregates (Nile Red fluorescence IAUC 580-700 nm normalized to control)” value in experiment [4] is listed as “no significant change in Nile Red fluorescence”. Besides, the “Inhibition of Aβ40 aggregation (ThT), previously reported value” in experiment [5] is reported as 81.2±4.4%. Moreover, in experiment [6], the “decrease in fibrillar aggregates (dot blot), previously published data” value is recorded as 63.7±9.2% and the “fold change in lag time compared to the control (dot blot), previously published data” value is below 0.31 fold.
